This is an account of results in patent publication US20200315171A1, “PSYLLID PHEROMONE COMPOSITIONS” (The Regents of the University of California, priority 2017, published 2020).

In series [1] the test system is 7-day-old virgin D. citri males. Briefly: Y-olfactometer behavioral assay, virgin males as responders. It counts as in vivo, Diaphorina citri. As for the experimental part: (§1) Indoor behavioral assays. All behavioral assays were conducted in a climate-controlled room (see above). A glass tube in a Y-shape (central tube 15 cm in length and 3 cm in diameter split into two tubes in a 120° angle with the same dimensions used in the central tube) was placed vertically with the decision arms pointing towards the ceiling (light sources). All connections were made with 0.635-diameter polytetrafluoroethylene (PTFE) tubes (Sigma-Aldrich, Bellefonte, Pa., USA). Clean air was provided by an oil-free air compressor (Schulz MSV6, Schulz, Joinville, SC, Brazil) and humidified into milliQ water before the line was split into two separate lines, each one with an air flowmeter with a range from 0.1 to 1.0 L/min (Brooks Instrument, Hatfield, Pa. USA) to allow balanced flow of […]. […] Insects that crossed the central tube line located 5 cm from the bifurcation within the observation time of 5 min were recorded as responders. […]
(§2) Statistical analyses. […] Field tests with multiple comparison (different doses) were analyzed by ANOVA. Capture data were first transformed into log (x+1) and them means were analyzed by Dunnett's test as well as Tukey's test (P<0.05) by comparing the mean of each column with the mean of the control or with the mean of every other group, respectively.

Series [2] concerns D. citri adults. Kind of series: Field tests with baited yellow sticky traps in a citrus grove. It counts as in vivo, Diaphorina citri. The note with it: for Males caught: higher-dose field experiment, n=48 per trap. How it is done:
Field Experiment 1: Evaluation of lignoceryl acetate, lygnocerol, formic acid, acetic acid, and propionic acid. These experiments were performed in an organic grove of Valencia sweet orange [Citrus sinensis (L.) Osbeck] grafted on ‘Rangpur’ lime (Citrus limonia Osbeck) with natural infestation of D. citri. For this purpose, yellow stick cards (30 cm in length×10 cm in width) with a 2 cm in diameter central hole were used to assess the attractivity of the test compounds to D. citri adults. Compounds were assessed at doses ranging from 0.01 μg to 100 μg. Hexane was used as a control. Tested compounds were incorporated into slow-release devices made of ES fiber (Ethylene-Propylene Side by Side, Chiso Co. Ltd, Japan). The experiments were designed in Latin square using 16 traps spaced 25 m from each other (4 traps per treatment). They were repeated three times over time and the number of captured ACP adults was recorded each 7 days for 49 days.
(§3) Statistical analyses. […] Each pair of a test and a control in indoor behavioral measurements using an Y-olfactometer or 4-way olfactometer, as well in field tests comparing only a single treatment and a control, was compared by using two-tailed, Wilcoxon matched-pairs signed rank test.

Series [3] has as its system D. citri adults. Kind of series: Field tests with transparent traps baited with aged lignoceryl acetate lures. The series is classed as in vivo, Diaphorina citri. As for the experimental part:
Field Experiment 2: Evaluation of aged lignoceryl acetate lures. Lures were prepared and kept in greenhouses for 28 days prior to being fixed in yellow stick cards in the field. Thus, aged lures were tested in the field starting on day 28 until 70 days after preparation of the lures. The area, experimental design, number of traps, and data collection were the same as described above.
Field Experiment 3: Evaluation of lignoceryl acetate lures using transparent traps. To avoid interference from the yellow visual cues from the stick cards, these experiments were performed with transparent acrylic traps (30 cm in length×10 cm in width) and covered with an adhesive glue film (Biostop Cola, Biocontrole, São Paulo, Brazil). The experimental design, number of traps, and data collection were the same as described above.
as §3

The nature of series [4]: SPME analysis of volatiles from lures matured under field conditions. It counts as physicochemical. Particulars: lures matured for 5 weeks under field conditions vs new lures. As for the experimental part:
Injections were operated in splitless mode with an injector temperature of 250° C. The GC ovens were programmed from 40° C. for 1 min, increased to 300° C. at 10° C./min (held for 50 min). MS transfer line, manifold, and trap were set at 300° C., 50° C., and 217° C., respectively. Quantitative analyses were done on a Shimadzu GC-2010 gas chromatograph equipped with a flame ionization detector (Shimadzu Corp., Kyoto, Japan) and fitted with an HP5-MS capillary column (30 m×0.25 mm i.d.×[…]; Agilent Scientific, Santa Clara, Calif., USA). SPME analyses were done with a 50/30 divinylbenzene (DVB)/carboxen (CAR)/polydimethylsiloxane (PDMS) (Supelco, catalogue number 57328-U). Volatile compounds were collected from the headspace of the samples placed in a closed glass container with a rubber septum on the top. Both laboratories used the same oven temperature program, i.e., starting at 35° C. for 5 min, raising to 70° C. at a rate of 2.5° C./min, then increasing to 150° C. at 5° C./min, and subsequently raising to the final temperature of 250° C. at 20° C./min.

In a further series the test system is ACP male antennae. Kind of series: Electroantennogram (EAG) responses of ACP male antennae to C1-C6 acids. Also noted: species or system Diaphorina citri. How it is done: (§4) Electrophysiology. Antennas were mounted, according to a published protocol^26, under a stereoscopic microscope (SZT, BEL Engineering, MB, Italy). Antennae were connected with glass microcapillaries pulled with a PC-10 puller (Narishige, Kanto, Japan). The glass capillaries housed 0.39 mm gold wires (Sigmund Cohn Corp, Mt. Vernon, N.Y.) and were filled with a saline solution (3.7 g NaCl, 0.175 g KCl, 0.17 g CaCl2 in 500 mL of distilled water). Electrodes were connected to a Universal Probe, gain 10× (Syntech, Buchenbach, Germany) and connected to a 2-Chanel IDAC Acquisition Controller (Syntech). The signal was processed with Syntech software (GcEad version 4.6). Two Pasteur pipettes were used one for a flow balance and the other as a stimulus. The stimulus was loaded on a filter paper strip (40×4-mm), which was inserted in the stimulus pipette after evaporation for 1 min. Each cartridge was used only once. The antennal preparation was set at the end of an effluent flow tube, which had two lateral holes (13 cm from the antennal preparations) to accommodate the tips of the Pasteur pipettes (stimulus and flow balance). Humidified continuous flow (0.1 L/min) was generated by a CS-55 Stimulus Controller (Syntech). Flow for stimulus and balance were set at 1 L/min. Stimulus duration was set a 1 s. There was a minimal interval of 1 min between stimuli.

The test system of the next series is ACP female antennae. Kind of series: Electroantennogram (EAG) responses of ACP female antennae to acids. Also noted: species or system Diaphorina citri. The note with it: source dose 10^−1. How it is done:
as §4

Series [5] relates to 7-day-old virgin D. citri females. Particulars: acetic acid 0.01 μL/μL hexane, 100 μL. An excerpt: (§5) An air-flow olfactometer, also known as “4-arm olfactometer” or “4-way olfactometer” was constructed^29 (30.0×30.0×2.5 cm in length, width and height, respectively) with acrylic. A constant, charcoal-filtered humidified airflow 0.1 L/min was connected to each odor source, and all airflows converged through individual PTFE tubes to the center of the acrylic arena. Yellow fields were made by adding a yellow laser jet printed-paper below the bottom of the arena with the following color spaces: lightness (84.8±0.04), chroma (98.7±0.40), and hue angle (95.7±0.02) using a colorimeter Minolta CR400 (Konica Minolta Co., Osaka, Japan).^34 Two of the four possible arms received volatiles from acetic acid 0.01 μL/μL hexane (100 μL), whereas the other two remaining received hexane. The psyllids (virgin 7-day-old males or females) were released on the center of the arena. An olfactometer test consisted of the release of a single D. citri and the observation (from 15:00 to 18:00). As a criterion for data collection from each insect, five minutes were allowed for response (first choice). In case of response, 10 minutes were allowed to observe the time spent in each of the four odor fields.
(§6) Statistical analyses. All statistical analyses were done with Prism 7 (GrapPad, La Jolla, Calif.). Each pair of a test and a control in indoor behavioral measurements using an Y-olfactometer or 4-way olfactometer, as well in field tests comparing only a single treatment and a control, was compared by using two-tailed, Wilcoxon matched-pairs signed rank test. Field tests with multiple comparison (different doses) were analyzed by ANOVA. Capture data were first transformed into log (x+1) and them means were analyzed by Dunnett's test as well as Tukey's test (P<0.05) by comparing the mean of each column with the mean of the control or with the mean of every other group, respectively.

The test system of series [6] is 7-day-old virgin D. citri males. The note with it: acetic acid 0.01 μL/μL hexane, 100 μL.
From the text: as §5, §6

For series [7], the system named is 7-day-old virgin D. citri females. Particulars: acetic acid 0.01 μL/μL hexane, 100 μL. As for the experimental part:
as §1, §2
This is another data set of the same source.

The test system of series [8] is olfactory receptor neurons in ACP antennae. The note with it: reported in reference 28; cited from earlier work.
Where [9] appears, read: yellow sticky traps baited with 0.1 μg.
The mark [10] stands for this setting: yellow sticky traps baited with 1 μg.
[11] abbreviates: yellow sticky traps baited with 10 μg.

“Also recorded” adds a separate entry of the source.

`CCCCCCCCCCCCCCCCCCCCCCCCOC(C)=O` [24Ac, tetracosyl acetate]: the “Preference of virgin males for treatment vs control in olfactometer” value in series [1] (0.1 to 100 μg as odor source, P=0.2031-0.9999) is reported as “did not show any significant preference”. Also, the “Lure activity after 42 days” value in the series with D. citri adults [2] (1 μg per trap, after 42 days) is listed as “lost activity”. Besides, the “Captures in baited traps vs control traps” value is recorded as “significantly more males were captured” in the series on D. citri adults [2] (1 μg per trap, at 35 and 42 days); “not significantly different” in the series on D. citri adults [2] (1, 10 and 100 μg per trap, first weeks of the experiments); “a significant difference was observed; also recorded: significantly higher than captures in control traps” in the series with D. citri adults [2] (1.0, 10 and 100 μg, 35 and 42 days after onset). Moreover, the Lure activity result in the series on D. citri adults [3] (aged lures, after 3 weeks in field) is on record as “lost all activity”. For the same compound, the “Males collected vs control traps” value in the series with D. citri adults [3] (lures aged for 35 days, first week in field) is “collected significantly more males than control traps”. Moreover, the “Degradation of lure: volatiles detected by SPME” value in series [4] was “small amounts of acetic acid in aged but not in new lures”.

`CCCCC(=O)O` [valeric acid] displayed an EAG response in the series on ACP male antennae (source dose 10^−1) of 0.24±0.03 mV.

Turning to `CC(=O)O` [acetic acid], the EAG response in the series with ACP male antennae (source dose 10^−1) came to 2.70±0.36 mV; with ACP male antennae (source dose 10^−2), 1.73±0.37 mV; with ACP male antennae (very low dose 10^−3) it was 0.44±0.21 mV; in the series on ACP female antennae, 3.22±0.94 mV. In [1] (acetic acid 0.01 μL/μL hexane, 100 μL), the “Male attraction to treatment side vs control side of Y-olfactometer” value is “significantly more attracted”. Also, the “Female choice between treatment and control sides of 4-way olfactometer” value in [5] is listed as “did not distinguish”. Also, the “Time spent by females on treatment vs control sides of 4-way olfactometer” value in series [5] is listed as “not significantly different”. Besides, the “Time spent by males in treatment vs control fields of 4-way olfactometer” value in [6] is given as “spent significantly more time”. Also, the “Male preference for treatment fields vs control sides in 4-way olfactometer” value in [6] (first choice) is listed as “highly significant”. Also, the “Female response to baited arm vs control side of Y-olfactometer” value in series [7] was “did not differ significantly”. Moreover, in the series on D. citri adults [2] (traps baited with 1 ug), the “Captures vs control traps, preliminary field experiments” value is “captured significantly more ACP adults than control traps”. In addition, the Males caught was 2.48±0.25 males per trap per day in the series with D. citri adults [2] (traps baited with 1 μg), 3.08±0.33 males per trap per day with D. citri adults [2] (traps baited with 10 μg) and 4.23±0.35 males per trap per day in the series on D. citri adults [2] (traps baited with 100 μg). Also, the ACP adults captured is reported as 7.42±0.35 D. citri per trap per week in the series with D. citri adults [2] (setting [9]), 14.77±0.54 D. citri per trap per week in the series on D. citri adults [2] (setting [10]) and 9.52±0.50 D. citri per trap per week in the series with D. citri adults [2] (setting [11]). In series [8], the “Effect on responses from olfactory receptor neurons” value was “inhibit responses”.

Regarding `CCCCCC(=O)O` [hexanoic acid, reference compound], the EAG response result with ACP male antennae (source dose 10^−1) is “no response”.

As to `O=CO` [formic acid], the values for the EAG response in the series with ACP male antennae (source dose 10^−1), in the series on ACP male antennae (source dose 10^−2) and in the series with ACP female antennae were 1.60±0.63 mV, 0.42±0.37 mV and 1.86±0.48 mV, respectively. Further, the ACP adults captured in the series on D. citri adults [2] (setting [9]) is 2.59±0.30 D. citri per trap per week; in the series with D. citri adults [2] (setting [10]), 9.17±0.36 D. citri per trap per week; in the series on D. citri adults [2] (setting [11]) it was 7.14±0.34 D. citri per trap per week.

With `CCCCCCCCCCCCCCCCCCCCCCCCO` [240H, lignocerol, reference compound], the “Captures in treatment vs control traps” value with D. citri adults [2] (doses from 0.1 to 100 μg, each week, Dunnett P=0.2770-0.9999, n=4 per dose per week) is on record as “did not find significant differences”.

On to `CCC(=O)O` [propionic acid], for which the EAG response with ACP male antennae (source dose 10^−1) came out at 2.22±0.29 mV; in the series with ACP male antennae (source dose 10^−2) it was 1.13±0.47 mV; in the series with ACP female antennae, 2.90±1.09 mV. Also, the ACP adults captured is 9.52±0.52 D. citri per trap per week with D. citri adults [2] (yellow sticky traps baited with 0.01 μg), 18.27±0.52 D. citri per trap per week with D. citri adults [2] (setting [9]) and 13.79±0.53 D. citri per trap per week with D. citri adults [2] (setting [10]). The “Effect on responses from olfactory receptor neurons” value in [8] was “inhibit responses”.

Consider `CCCC(=O)O` [butyric acid], for which the EAG response in the series on ACP male antennae (source dose 10^−1) is given as 0.52±0.36 mV.
